Experimental data published in patent US11260129B2, “Phosphor-containing drug activator, suspension thereof, system containing the suspension, and methods for use” (IMMUNOLIGHT, LLC, priority 2016, dated 2022).

Columns and labels:
4T1-HER2 cells [1] = experiment: Methylene blue staining for cell viability; format: cell-based, murine; conditions: individual components, 1 Gy of 80 kVp x-rays
Procedure: A plate having six (6) wells is subjected to treatment. FIG. 11 is a photographic depiction showing of Methylene Blue stain for cell viability post treatment with X-ray, phosphors and UVADEX. One well (#1) is the control. One well (#2) has phosphor coated with EC and DLC (H100). One well (#3) has phosphor coated with EC (but no DLC).
FIGS. 13A-13D illustrates the efficacy of treatment in-vitro in 4T1-HER2 cells, utilizing a regimen of 1/10-diluted UVADEX (with equivalent of 10 uM 8-MOP), 50 μg/mL phosphor 1 Gy of 80 kVp x-rays. […] Two results from two separate plates are shown, each with identical preparations to investigate reproducibility. Three concentrations of phosphor (25, 50, & 100 μg/mL) were tested with the UVADEX concentration fixed at 1/10 dilution (10 uM 8-MOP). […] In FIGS. 13A-13D, the anti-tumor effects of the treatment and its individual components on 4T1-HER2 cells. […] In FIGS. 13C and 13D, cell viability illustrated by methyl blue staining for identical plates each receiving 1 Gy of 80 kVp x-rays is depicted. […]

4T1-HER2 cells [2] = experiment: Annexin V positivity by flow cytometry (FIGS. 13B, 15, 16); format: cell-based, murine; conditions: UVADEX alone, with or without x-ray (p 0.90 and 0.09)
Procedure: In-vitro studies were conducted on plated cells following standard procedures. Cells were maintained in RPMI-1640 supplemented with 10% fetal bovine serum and L-glutamine from GIBCO (Grand Island, N.Y.) growing in a humidified atmosphere of 5% CO2. After incubation, cells were trypsinized and plated evenly onto twelve 12-well plates for 24 hours. About 20 minutes prior to irradiation, the 12 wells of each plate were exposed to the following combinations of additives: […] Each plate had 12 wells with three wells for each of the four treatment arms. The plates were then irradiated with x-rays by placing the plate at a known distance from the x-ray source (50 cm). After irradiation, the cells were incubated on the plate for 48 hours prior to performing flow cytometry. […] (after the 48 hour incubation) and plated onto the 96-well plate, Two primary flow cytometry analyses were used, both determined at 48 hours after treatment. […] The first analysis evaluated was metabolic cell viability (herein referred to as cell viability) calculated from the number of whole cells per well as determined using forward scattering (ESC). […] In FIG. 13A, cell viability after treatment (10 μM 8-MOP equivalent dilution of UVADEX, 50 μg/mL phosphor, 1 Gy of 80 kVp radiation) as determined by Guava flow cytome cytometry is depicted. […]

4T1-HER2 cells [3] = experiment: Cell viability by Guava flow cytometry (FIG. 13A); format: cell-based, murine; conditions: UVADEX alone, 1 Gy 80 kVp; p=0.97
Procedure: In-vitro studies were conducted on plated cells following standard procedures. Cells were maintained in RPMI-1640 supplemented with 10% fetal bovine serum and L-glutamine from GIBCO (Grand Island, N.Y.) growing in a humidified atmosphere of 5% CO2. After incubation, cells were trypsinized and plated evenly onto twelve 12-well plates for 24 hours. About 20 minutes prior to irradiation, the 12 wells of each plate were exposed to the following combinations of additives: […] Each plate had 12 wells with three wells for each of the four treatment arms. The plates were then irradiated with x-rays by placing the plate at a known distance from the x-ray source (50 cm). After irradiation, the cells were incubated on the plate for 48 hours prior to performing flow cytometry. For compatibility with 96-well Guava Nexin® assay, the remaining cells were again trypsinized. […] Two primary flow cytometry analyses were used, both determined at 48 hours after treatment. […] The first analysis evaluated was metabolic cell viability (herein referred to as cell viability) calculated from the number of whole cells per well as determined using forward scattering (ESC). […] In FIG. 13A, cell viability after treatment (10 μM 8-MOP equivalent dilution of UVADEX, 50 μg/mL phosphor, 1 Gy of 80 kVp radiation) as determined by Guava flow cytome cytometry is depicted. […]

[4] = system: CT2A (murine malignant glioma); experiment: Cell-Titer-Glo Luminescence Cell Viability Assay, UV activated psoralen (FIG. 14A); format: cell-based; conditions: psoralen 40 μM; UV light 0, 0.25, 0.5, 1.0 J/cm2; N=4
Source text: (§1) Other assays were used to provide independent complimentary information on cell viability, e.g. Methylene blue staining and ATP-induced Luminescence imaging (Cell-Titer-Glo® Luminescence Cell Viability Assay). The luminescence imaging permitted investigation of the cytotoxicity of psoralen activated directly with a UV lamp, and in the absence of phosphors and x-ray radiation.
(§2) FIG. 14B presents data on CT2A malignant glioma cells, for a range of treatment parameters including variable x-ray dose (0, 0.67 and 1 Gy). phosphor concentration (50 or 100 μg) and psoralen concentration (8-MOP) at 10, 20 and 40 μM respectively. […] N=4 for each cell line at each UV light condition (0, 0.25, 0.5, 1.0 J/cm2). The psoralen concentration was 40 μM. For FIG. 14B, in CT2A cells, the treatment cytotoxicity increases with X-ray dose (0, 0.67 and 1.00 Gy respectively), concentration of 8-MOP psoralen (10, 20 and 40 μM respectively), and phosphor (50 and 100 μg/ml) respectively (p values shown thereon).

4T1 = experiment: as above; format: cell-based, murine; conditions: psoralen 40 μM; UV light 0, 0.25, 0.5, 1.0 J/cm2; N=4
Source text: as §1, §2

KP-B (sarcoma) = experiment: as above; format: cell-based, murine; conditions: psoralen 40 μM; UV light 0, 0.25, 0.5, 1.0 J/cm2; N=4
Source text: as §1, §2

| SMILES | effect in methyl blue staining (FIGS. 13C, 13D) (4T1-HER2 cells [1]) | apoptotic activity (Annexin V) (4T1-HER2 cells [2]) | effect of addition of radiation on cell viability (4T1-HER2 cells [3]) | viable cells [4] | viable cells (4T1) | viable cells (KP-B (sarcoma)) |
| --- | --- | --- | --- | --- | --- | --- |
| COc1c2occc2cc2ccc(=O)oc12 [UVADEX, 8-methoxypsoralen] | little effect | negligible apoptotic activity | no significant effect | – | – | – |
| O=c1ccc2cc3ccoc3cc2o1 [psoralen] | – | – | – | reduce viable cells | reduce viable cells | reduce viable cells |
